Assay results from the supplement of paper PMC10883282.
± gives the standard deviation of the averaged measurements.

Tested on: SW1353
Assay: relative viability vs DMSO control (72 h) (fraction); higher = more viable cells
How it was run: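 Sarcoma cell lines went into 384-well plates at densities chosen to reach 80–90% confluence. After 24 h, each well received 2.5 µl of serially diluted compound, with source plates running from 10 mM to 0.0002 mM, and the plates were kept 72 h at 37 °C, 5% CO2, alongside 0.1% DMSO vehicle and a 5 µM positive control. Relative viability was derived from ATPLite readings as percent growth and averaged over up to triplicate wells. The data were then rescaled so that 1 stands for full and 0 for none.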

Structure (SMILES) | relative viability (0.00017 µM) | relative viability (0.00051 µM) | relative viability (0.00152 µM) | relative viability (0.00457 µM) | relative viability (0.01372 µM) | relative viability (0.04115 µM) | relative viability (0.1235 µM) | relative viability (0.3704 µM) | relative viability (1.111 µM) | relative viability (3.333 µM) | relative viability (10 µM)
C=CC(=O)Nc1cccc(Oc2nc(Nc3ccc(N4CCN(C)CC4)cc3)nc3ccsc23)c1 [Olmutinib] | 1.03 ± 0.048 | 1.06 ± 0.059 | 1.04 ± 0.013 | 1.04 ± 0.048 | 1.03 ± 0.038 | 1.02 ± 0.03 | 0.997 ± 0.031 | 0.95 ± 0.086 | 0.857 ± 0.021 | 0.755 ± 0.012 | 0.104 ± 0.0062
COc1cc2c(Oc3ccc4[nH]c(C)cc4c3F)ncnc2cc1OCCCN1CCCC1 [Cediranib] | 0.971 ± 0.026 | 0.993 ± 0.025 | 1.004 ± 0.0039 | 0.999 ± 0.024 | 0.954 ± 0.011 | 0.949 ± 0.016 | 0.908 ± 0.013 | 0.848 ± 0.035 | 0.79 ± 0.034 | 0.751 ± 0.11 | 0.0589 ± 0.0064
Cc1cnc(Nc2ccc(OCCN3CCCC3)cc2)nc1Nc1cccc(S(=O)(=O)NC(C)(C)C)c1 [Fedratinib] | 1.058 ± 0.01 | 1.02 ± 0.05 | 1.03 ± 0.038 | 1.02 ± 0.016 | 0.987 ± 0.048 | 1 ± 0.046 | 0.915 ± 0.018 | 0.764 ± 0.036 | 0.533 ± 0.022 | 0.184 ± 0.0053 | 0.00437 ± 0.0012
CCCS(=O)(=O)Nc1ccc(F)c(C(=O)c2c[nH]c3ncc(-c4ccc(Cl)cc4)cc23)c1F [Vemurafenib] | 0.958 ± 0.033 | 0.979 ± 0.055 | 0.965 ± 0.038 | 0.954 ± 0.052 | 1.01 ± 0.011 | 0.993 ± 0.022 | 0.949 ± 0.032 | 0.981 ± 0.031 | 0.925 ± 0.015 | 0.703 ± 0.024 | 0.567 ± 0.14
Cn1cnc2c(F)c(Nc3ccc(Br)cc3F)c(C(=O)NOCCO)cc21 [Binimetinib] | 1.06 ± 0.021 | 1.08 ± 0.032 | 1.04 ± 0.019 | 0.993 ± 0.018 | 0.981 ± 0.038 | 0.889 ± 0.065 | 0.841 ± 0.092 | 0.832 ± 0.019 | 0.806 ± 0.019 | 0.739 ± 0.026 | 0.661 ± 0.013
COc1c(OCCCN2CCOCC2)ccc2c1N=C(NC(=O)c1cnc(N)nc1)N1CCN=C21 [Copanlisib] | 1.08 ± 0.053 | 1.05 ± 0.054 | 1.01 ± 0.025 | 0.917 ± 0.011 | 0.845 ± 0.033 | 0.743 ± 0.047 | 0.635 ± 0.045 | 0.518 ± 0.011 | 0.441 ± 0.015 | 0.412 ± 0.03 | 0.364 ± 0.017
COc1cc2nccc(Oc3ccc(NC(=O)Nc4cc(C)on4)c(Cl)c3)c2cc1OC [Tivozanib] | 0.97 ± 0.029 | 0.983 ± 0.036 | 0.965 ± 0.044 | 0.961 ± 0.064 | 1.01 ± 0.033 | 0.988 ± 0.028 | 1.01 ± 0.021 | 1.04 ± 0.021 | 1.05 ± 0.054 | 0.8973 ± 0.0033 | 0.582 ± 0.0097
CC[C@H](Nc1ncnc2[nH]cnc12)c1nc2cccc(F)c2c(=O)n1-c1ccccc1 [Idelalisib] | 1.06 ± 0.038 | 1.05 ± 0.053 | 1.04 ± 0.048 | 1.05 ± 0.02 | 1.01 ± 0.043 | 0.969 ± 0.016 | 0.952 ± 0.045 | 0.931 ± 0.043 | 0.831 ± 0.042 | 0.752 ± 0.011 | 0.573 ± 0.027
Cc1cc(C)c(/C=C2\C(=O)Nc3ccccc32)[nH]1 [Semaxanib] | 0.919 ± 0.019 | 0.8637 ± 0.004 | 0.898 ± 0.032 | 0.897 ± 0.043 | 0.865 ± 0.022 | 0.895 ± 0.052 | 0.892 ± 0.016 | 0.886 ± 0.017 | 0.872 ± 0.04 | 0.818 ± 0.022 | 0.788 ± 0.032
Cc1ccc(F)c(NC(=O)Nc2ccc(-c3cccc4[nH]nc(N)c34)cc2)c1 [Linifanib] | 1.08 ± 0.035 | 0.998 ± 0.023 | 1.02 ± 0.012 | 1.02 ± 0.015 | 1 ± 0.036 | 1.01 ± 0.057 | 0.982 ± 0.055 | 1.037 ± 0.009 | 1.07 ± 0.018 | 1.07 ± 0.036 | 0.9638 ± 0.0037
COCc1c(-c2cc3cc(C)cc(OC)c3s2)c2c(N)ncnn2c1CN1CCNC(=O)C1 [Rogaratinib] | 1.075 ± 0.01 | 1.03 ± 0.021 | 0.977 ± 0.025 | 1.01 ± 0.036 | 0.964 ± 0.032 | 0.901 ± 0.028 | 0.879 ± 0.0097 | 0.819 ± 0.031 | 0.795 ± 0.014 | 0.757 ± 0.013 | 0.691 ± 0.021
N#CC[C@H](C1CCCC1)n1cc(-c2ncnc3[nH]ccc23)cn1 [Ruxolitinib] | 1.049 ± 0.0061 | 1.1 ± 0.052 | 1.1 ± 0.027 | 1.09 ± 0.029 | 1.09 ± 0.029 | 1.09 ± 0.014 | 1.05 ± 0.021 | 1.04 ± 0.011 | 1.03 ± 0.038 | 1.02 ± 0.033 | 0.807 ± 0.012
CCN1CCN(Cc2ccc(Nc3ncc(F)c(-c4cc(F)c5nc(C)n(C(C)C)c5c4)n3)nc2)CC1 [Abemaciclib] | 0.958 ± 0.031 | 0.974 ± 0.017 | 0.976 ± 0.021 | 0.944 ± 0.011 | 0.9333 ± 0.0082 | 0.884 ± 0.033 | 0.778 ± 0.023 | 0.74 ± 0.021 | 0.699 ± 0.024 | 0.73 ± 0.046 | 0.721 ± 0.047
CNC(=O)c1cc(Oc2ccc(NC(=O)Nc3ccc(Cl)c(C(F)(F)F)c3)c(F)c2)ccn1 [Regorafenib] | 1.11 ± 0.029 | 1.05 ± 0.05 | 1.07 ± 0.017 | 1.08 ± 0.021 | 1.04 ± 0.096 | 1.01 ± 0.043 | 1.08 ± 0.044 | 0.996 ± 0.07 | 0.978 ± 0.047 | 0.919 ± 0.036 | 0.555 ± 0.02
Nc1cc(C(F)(F)F)c(-c2cc(N3CCOCC3)nc(N3CCOCC3)n2)cn1 [Buparlisib] | 0.984 ± 0.018 | 0.956 ± 0.011 | 0.971 ± 0.011 | 0.982 ± 0.042 | 0.966 ± 0.059 | 0.9295 ± 0.0043 | 0.889 ± 0.03 | 0.835 ± 0.018 | 0.654 ± 0.0079 | 0.381 ± 0.015 | 0.266 ± 0.0047
CC(C)NC(=O)C1CCC(n2c(NC(=O)c3ccc(F)cc3)nc3ccc(CN4CCC(C(C)(C)O)CC4)cc32)CC1 (stereo not drawn) [Belizatinib] | 1.02 ± 0.03 | 0.987 ± 0.045 | 1.02 ± 0.014 | 1.05 ± 0.062 | 1.03 ± 0.015 | 1.03 ± 0.03 | 0.944 ± 0.012 | 0.929 ± 0.022 | 0.808 ± 0.03 | 0.648 ± 0.021 | 0.441 ± 0.024
CC1(C)CNc2cc(NC(=O)c3cccnc3NCc3ccncc3)ccc21 [Motesanib] | 0.993 ± 0.037 | 1.01 ± 0.013 | 1.02 ± 0.011 | 1 ± 0.018 | 0.997 ± 0.03 | 1.01 ± 0.012 | 0.963 ± 0.031 | 0.964 ± 0.016 | 0.977 ± 0.025 | 0.935 ± 0.023 | 0.898 ± 0.025
CC(=O)Nc1cccc(-n2c(=O)n(C3CC3)c(=O)c3c(Nc4ccc(I)cc4F)n(C)c(=O)c(C)c32)c1 [Trametinib] | 1.02 ± 0.025 | 1.01 ± 0.034 | 0.942 ± 0.024 | 0.862 ± 0.014 | 0.745 ± 0.014 | 0.69 ± 0.031 | 0.642 ± 0.029 | 0.613 ± 0.012 | 0.571 ± 0.025 | 0.5524 ± 0.0038 | 0.509 ± 0.019
